According to patent US5424314A, “20,21-dinoreburnamenines” (Roussel-Uclaf, priority 1990, dated 1995):
Counter-ions that a name gives are not always drawn.

Assays:
[1] = tested on: alpha 2 adrenergic receptors; assay: Affinity for alpha 2 adrenergic receptors (H^3 rauwolscine displacement, cortex homogenate); format: binding, male rate (rat) brain cortices; conditions: H^3 rauwolscine 0.15 nM, 45 minutes at 25° C., pH 7.4; concentrations inhibiting 50% of specific fixation compared with phentolamine
Procedure: 2 Affinity for Alpha 2 Adrenergic Receptors
10 cortices removed from the brains of male rate weighing on average 150 g were homogenized in 90 ml of 0.32M sucrose. After centrifuging the homogenized mixture at 1,000 g for 10 minutes at 0° C., the supernatant was centrifuged at 30,000 g for 10 minutes at 0° C.+4° C. The deposit was suspended in 240 ml of 50 mM Tris HCl pH 7.7 buffer and centrifuged at 30,000 g for 15 minutes at 0° C.+4° C. The new deposit was suspended in 480 ml of 50 mM NaKPO4 pH 7.4 buffer. Then 2 ml of suspension were incubated for 45 minutes at 25° C. in the presence of H^3 rauwolscine it a concentration of 0.15 nM:
i) on its own, ii) with increasing concentrations of the product under test or, iii) to determine the non-specific fixation, with non-radioactive phentolamine at a concentration of 10^-5 M.
The incubated suspensions were filtered on Whatman GF/C and the filters were washed three times with 5 ml of NaKPO4 pH 7.4 buffer at 0° C. The radioactivity of the filters was measured by liquid scintillation. The affinity of the product tested for the alpha 2 adrenergic receptors was determined relative to phentolamine as reference product.
CD=concentration of phentolamine inhibiting 50% of the specific fixation of H^3 rauwolscine;
CX=concentration of the product tested inhibiting 50% of the specific fixation of H^3 rauwolscine. […]

mouse = assay: Acute toxicity: lethal dose LD0 after oral administration to a mouse; format: in vivo
Procedure: The lethal doses LD0 of the different compounds tested were evaluated after oral administration to a mouse.

[2] = tested on: mice of CD1, Charles River type; assay: Hypobaric anoxia: survival time of mice subjected to a lethal hypoxic atmosphere; format: in vivo; conditions: relative to vehicle control animals (70 to 80 seconds); male CD1 mice, depression of 620 mm Hg
Description: The test consisted of measuring the survival time of mice subjected to a lethal hypoxic atmosphere in which male mice of CD1, Charles River type, weighing 20 to 25 grams, were placed individually in a 2 liter enclosure in which a depression of 620 mm Hg was brought about by means of a vacuum pump, according to the following kinetics: […]
______________________________________
The survival time was the time between the start of the depression (T0) and the last respiratory movement; it was on the order of 70 to 80 seconds on the control animals. The results are given as a percentage of the increase in the survival time relative to the control animals who received the vehicle.

C=Cc1ccc2c3c4n(c2c1)C=CC1CCCN(CC3)C41 (racemic) [Example 1, [16 α(±)]-11-ethenyl-20,21-dinoreburnamenine maleate]
RBA (relative affinity, relative to phentolamine as reference product) [1]: 31 | LD0 (maximum dose which did not cause any mortality in 8 days) (mouse): ≥ 400

CC(=O)c1ccc2c3c4n(c2c1)C=CC1CCCN(CC3)C41 (racemic) [Example 4, [16α(±)]-11-acetyl-20,21-dinoreburnamenine acid maleate]
LD0 (maximum dose which did not cause any mortality in 8 days) (mouse): 100 | % increase of survival time [2]: +22%

CC(O)c1ccc2c3c4n(c2c1)C=CC1CCCN(CC3)C41 (racemic) [Example 5]
LD0 (maximum dose which did not cause any mortality in 8 days) (mouse): 100 | % increase of survival time [2]: +21%

NC(=O)c1ccc2c3c4n(c2c1)C=CC1CCCN(CC3)C41 (racemic) [Example 10, [16α(±)]-20,21-dinoreburnamenine-11-carboxamide]
% increase of survival time [2]: +22%
